Measurements as given in patent US7132504B2, “Hepatitis C virus inhibitors” (Bristol-Myers Squibb Company, priority 2003, dated 2006).

Tests used:
[1] = biological target: T1, HCV NS3/4A protease complex (UniProt P27958, C1454S/C1711G, species not given); experiment: Recombinant HCV NS3/4A protease complex FRET peptide assay (strain not stated); assay type: biochemical; conditions: NS3/4A protease enzyme assay, read-out: Activity Range IC50
T1 construct: fused on or other part: Three-lysine solubilising tail at the C-terminus of NS4A
Excerpt: The purpose of this in vitro assay was to measure the inhibition of HCV NS3 protease complexes, derived from the BMS strain, H77 strain or J416S strain, as described below, by compounds of the present invention. This assay provides an indication of how effective compounds of the present invention would be in inhibiting HCV proteolytic activity.
Serum from an HCV-infected patient was obtained from Dr. T. Wright, San Francisco Hospital. An engineered full-length cDNA (compliment deoxyribonucleic acid) template of the HCV genome (BMS strain) was constructed from DNA fragments obtained by reverse transcription-PCR (RT-PCR) of serum RNA (ribonucleic acid) and using primers selected on the basis of homology between other genotype 1a strains. From the determination of the entire genome sequence, a genotype 1a was assigned to the HCV isolate according to the classification of Simmonds et al. (See P Simmonds, K A Rose, S Graham, S W Chan, F McOmish, B C Dow, E A Follett, P L Yap and H Marsden, J. Clin. Microbiol., 31(6), 1493–1503 (1993)). […] The infectious clones, H77 (1a genotype) and J4L6S (1b genotype) were obtained from R. Purcell (NIH) and the sequences are published in Genbank (AAB67036, see Yanagi, M., Purcell, R. H., Emerson, S. U. and Bukh, J. Proc. Natl. Acad. Sci. U.S.A. 94(16), 8738–8743 (1997); AF054247, see Yanagi, M., St Claire, M., Shapiro, M., Emerson, S. U., Purcell, R. H. and Bukh, J, Virology 244 (1), 161–172. (1998)).
The H77 and J4L6S strains were used for production of recombinant NS3/4A protease complexes. DNA encoding the recombinant HCV NS3/4A protease complex (amino acids 1027 to 1711) for these strains were manipulated as described by P. Gallinari et al. (see Gallinari P, Paolini C, Brennan D, Nardi C, Steinkuhler C, De Francesco R. Biochemistry. 38(17):5620–32, (1999)). Briefly, a three-lysine solubilizing tail was added at the 3′-end of the NS4A coding region. The cysteine in the P1 position of the NS4A–NS4B cleavage site (amino acid 1711) was changed to a glycine to avoid the proteolytic cleavage of the lysine tag. Furthermore, a cysteine to serine mutation was introduced by PCR at amino acid position 1454 to prevent the autolytic cleavage in the NS3 helicase domain. The variant DNA fragment was cloned in the pET21b bacterial expression vector (Novagen) and the NS3/4A complex was expressed in Escherichia. coli strain BL21 (DE3) (Invitrogen) following the protocol described by P. Gallinari et al. (see Gallinari P, Brennan D, Nardi C, Brunetti M, Tomei L, Steinkuhler C, De Francesco R., J Virol. 72(8):6758–69 (1998)) with modifications. Briefly, the NS3/4A protease complex expression was induced with 0.5 millimolar (mM) Isopropyl β-D-1-thiogalactopyranoside (IPTG) for 22 hours (h) at 20° C. A typical fermentation (1 Liter (L)) yielded approximately 10 grams (g) of wet cell paste. The cells were resuspended in lysis buffer (10 mL/g) consisting of 25 mM N-(2-Hydroxyethyl)Piperazine-N′-(2-Ethane Sulfonic acid) (HEPES), pH 7.5, 20% glycerol, 500 mM Sodium Chloride (NaCl), 0.5% Triton X-100, 1 microgram/milliliter (“μg/mL”) lysozyme, 5 mM Magnesium Chloride (MgCl2), 1 μg/ml Dnasel, 5 mM β-Mercaptoethanol (βME), Protease inhibitor—Ethylenediamine Tetraacetic acid (EDTA) free (Roche), homogenized and incubated for 20 minutes (min) at 4° C. The homogenate was sonicated and clarified by ultra-centrifugation at 235000 g for 1 h at 4° C. Imidazole was added to the supernatant to a final concentration of 15 mM and the pH adjusted to 8.0. The crude protein extract was loaded on a Nickel—Nitrilotriacetic acid (Ni-NTA) column pre-equilibrated with buffer B (25 mM HEPES, pH 8.0, 20% glycerol, 500 mM NaCl, 0.5% Triton X-100, 15 mM imidazole, 5 mM βME). The sample was loaded at a flow rate of 1 mL/min. The column was washed with 15 column volumes of buffer C (same as buffer B except with 0.2% Triton X-100). The protein was eluted with 5 column volumes of buffer D (same as buffer C except with 200 mM Imidazole). […]

[2] = biological target: T2, human liver cathepsin B (Homo sapiens, UniProt P07858); experiment: Specificity assay, cathepsin B; assay type: biochemical; conditions: assay interference at higher concentrations
T2 construct: purchased Sigma; host or cells: human liver
Description: The specificities of compounds of the present invention were determined against a variety of serine proteases: human neutrophil elastase (HNE), porcine pancreatic elastase (PPE) and human pancreatic chymotrypsin and one cysteine protease: human liver cathepsin B. In all cases a 96-well plate format protocol using colorimetric p-nitroaniline (pNA) substrate specific for each enzyme was used as described previously (PCT Patent Application No. WO 00/09543) with some modifications to the serine protease assays. All enzymes were purchased from Sigma while the substrates were from Bachem.
Each assay included a 2 h enzyme-inhibitor pre-incubation at room temperature followed by addition of substrate and hydrolysis to ˜30% conversion as measured on a Spectramax Pro microplate reader. Compound concentrations varied from 100 to 0.4 μM depending on their potency. […]
The percentage of inhibition was calculated using the formula: [1−((UVinh−UVblank)/(UVctl−UVblank))]×100 […]

Q: Which results are given for C=CC1C[C@]1(NC(=O)[C@@H]1C[C@@H](Oc2cc(-c3ccccc3)nc3cc(OC)ccc23)CN1C(=O)[C@@H](NC(=O)OC)C(C)(C)C)C(=O)NS(=O)(=O)N(C)Cc1ccccc1 (some centres unmarked) [Compound 9]?
A: IC50 [1]: < 0.15 µM; IC50 [2]: > 50 µM
